Results taken from patent US9382197B2, “Substituted hydroxamic acids and uses thereof” (Millennium Pharmaceuticals, Inc., priority 2010, dated 2016).

Target: T1, purified human HDAC6 (Homo sapiens, UniProt Q9UBN7)
T1 construct: purchased BPS Bioscience 5006
T1 sequence (Q9UBN7 1-1215): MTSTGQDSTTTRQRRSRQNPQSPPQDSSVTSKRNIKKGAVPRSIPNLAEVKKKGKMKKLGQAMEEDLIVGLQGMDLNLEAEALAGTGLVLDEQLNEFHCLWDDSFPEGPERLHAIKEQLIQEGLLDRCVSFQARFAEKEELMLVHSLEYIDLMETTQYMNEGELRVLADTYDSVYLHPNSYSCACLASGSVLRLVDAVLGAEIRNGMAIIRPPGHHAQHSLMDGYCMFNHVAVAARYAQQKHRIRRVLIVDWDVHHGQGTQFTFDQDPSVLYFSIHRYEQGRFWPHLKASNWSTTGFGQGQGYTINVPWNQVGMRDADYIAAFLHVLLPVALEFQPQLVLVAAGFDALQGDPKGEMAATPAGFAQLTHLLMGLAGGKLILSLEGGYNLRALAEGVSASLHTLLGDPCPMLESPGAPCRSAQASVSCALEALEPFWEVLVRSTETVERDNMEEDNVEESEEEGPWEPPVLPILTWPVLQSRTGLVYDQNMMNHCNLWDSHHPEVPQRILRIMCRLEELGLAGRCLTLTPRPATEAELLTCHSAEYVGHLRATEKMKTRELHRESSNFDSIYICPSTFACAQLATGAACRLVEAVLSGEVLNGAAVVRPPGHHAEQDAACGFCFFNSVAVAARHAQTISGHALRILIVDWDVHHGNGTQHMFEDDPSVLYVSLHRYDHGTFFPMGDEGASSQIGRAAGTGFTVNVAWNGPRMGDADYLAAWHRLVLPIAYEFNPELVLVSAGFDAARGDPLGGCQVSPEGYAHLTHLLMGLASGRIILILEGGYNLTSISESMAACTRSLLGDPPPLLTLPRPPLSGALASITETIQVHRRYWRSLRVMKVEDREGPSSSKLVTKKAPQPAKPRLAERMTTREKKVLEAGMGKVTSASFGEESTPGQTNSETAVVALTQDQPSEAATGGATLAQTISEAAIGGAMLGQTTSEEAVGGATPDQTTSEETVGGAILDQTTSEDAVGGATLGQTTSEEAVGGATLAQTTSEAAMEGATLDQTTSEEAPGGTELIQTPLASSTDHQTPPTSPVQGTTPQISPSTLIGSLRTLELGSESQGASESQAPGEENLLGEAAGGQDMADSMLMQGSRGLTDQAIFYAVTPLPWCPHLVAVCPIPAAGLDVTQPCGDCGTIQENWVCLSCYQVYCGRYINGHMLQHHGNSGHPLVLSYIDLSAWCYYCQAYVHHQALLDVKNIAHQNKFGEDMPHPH
Test: HDAC6 Enzyme Assay
Format: biochemical
Procedure, shortened: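 Purified human HDAC6 incubated 1 h at 30 °C with Ac-Arg-Gly-Lys(Ac)-AMC and compound; trichostatin A stop, trypsin release of AMC, fluorescence Ex 340/Em 460 nm. IC50 from concentration–response relative to DMSO.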

[1] = purified human HDAC6, substrate Ac-Arg-Gly-Lys(Ac)-AMC, 1 hour at 30° C., reported as bins
[2] = bin: greater than 500 nM and less than 1 μM (lower bound in nM, upper bound in μM)

| SMILES | IC50 [1] [nM] | further results |
| --- | --- | --- |
| Cc1oc(-c2ccccc2)nc1CC(=O)NC(c1ccc(C(=O)NO)cc1)C(C)(C)C (stereo not shown) [Compound I-80, 4-(2,2-dimethyl-1-{[(5-methyl-2-phenyl-1,3-oxazol-4-yl)acetyl]amino}propyl)-N-hydroxybenzamide] |  | IC50 (bin: greater than 1 μM): > 1000 nM |
| O=C(NO)c1ccc([C@@H](NC(=O)C23CC4CC(CC(C4)C2)C3)C2CC2)cc1 [Compound I-322, N-((S)-cyclopropyl{4-[(hydroxyamino)carbonyl]phenyl}methyl)adamantane-1-carboxamide] |  | IC50 (bin: greater than 1 μM): > 1000 nM |
| Cc1c(C(=O)N[C@H](C)c2cccc(C(=O)NO)c2)sc2ccccc12 [Compound I-113, N-((1R)-1-{3-[(hydroxyamino)carbonyl]phenyl}ethyl)-3-methyl-1-benzothiophene-2-carboxamide] | 100 to 500 |  |
| Cc1cc(C(=O)NO)ccc1C(C)NC(=O)C(C)(C)C (stereo not shown) [Compound I-490, 4-{1-[(2,2-dimethylpropanoyl)amino]ethyl}-N-hydroxy-3-methylbenzamide] |  | IC50 (bin: greater than 1 μM): > 1000 nM |
| CC(C)[C@@H](NC(=O)Nc1ccc(C#N)cc1)c1ccc(C(=O)NO)cc1 [Compound I-525, 4-[(1R)-1-({[(4-cyanophenyl)amino]carbonyl}amino)-2-methylpropyl]-N-hydroxybenzamide] | < 100 |  |
| C[C@@H](NC(=O)N[C@H](C)c1ccc(C(=O)NO)cc1)c1ccccc1 [Compound I-517, N-hydroxy-4-[(1R)-1-({[(1R)-1-phenylethyl]carbamoyl}amino)ethyl]benzamide] | 100 to 500 |  |
| CC(NS(=O)(=O)c1ccc(-c2cnco2)cc1)c1ccc(C(=O)NO)cc1 (stereo not shown) [Compound I-178, N-hydroxy-4-[1-({[4-(1,3-oxazol-5-yl)phenyl]sulfonyl}amino)ethyl]benzamide] | 100 to 500 |  |
| C[C@@H](NC(=O)c1cc(Cl)c(Cl)n1C)c1ccc(C(=O)NO)cc1 [Compound I-359, 4,5-dichloro-N-((1R)-1-{4-[(hydroxyamino)carbonyl]phenyl}ethyl)-1-methyl-1H-pyrrole-2-carboxamide] | < 100 |  |
| CC(NC(=O)c1ccccc1Cl)c1ccc(C(=O)NO)cc1 (stereo not shown) [Compound I-269, 2-chloro-N-(1-{4-[(hydroxyamino)carbonyl]phenyl}ethyl)benzamide] | < 100 |  |
| Cn1nc2c(c1C(=O)NC(c1ccc(C(=O)NO)cc1)C(C)(C)C)CCCC2 (stereo not shown) [Compound I-211, N-(1-{4-[(hydroxyamino)carbonyl]phenyl}-2,2-dimethylpropyl)-2-methyl-4,5,6,7-tetrahydro-2H-indazole-3-carboxamide] |  | IC50 (bin: greater than 1 μM): > 1000 nM |
| CC(NC(=O)C1CC=CCC1)c1ccc(C(=O)NO)cc1 (stereo not shown) [Compound I-348, 4-{1-[(cyclohex-3-en-1-ylcarbonyl)amino]ethyl}-N-hydroxybenzamide] | < 100 |  |
| CCC[C@@H](NC(=O)c1cccn1C)c1ccc(C(=O)NO)cc1 [Compound I-281, N-((1R)-1-{4-[(hydroxyamino)carbonyl]phenyl}butyl)-1-methyl-1H-pyrrole-2-carboxamide] | < 100 |  |
| C[C@@H](NC(=O)c1cc2ccccc2n1C)c1cccc(C(=O)NO)c1 [Compound I-330, N-((1R)-1-{3-[(hydroxyamino)carbonyl]phenyl}ethyl)-1-methyl-1H-indole-2-carboxamide] | 100 to 500 |  |
| C[C@H](NC(=O)C1(C)CCCCC1)c1ccc(C(=O)NO)cc1 [Compound I-273, N-hydroxy-4-((1S)-1-{[(1-methylcyclohexyl)carbonyl]amino}ethyl)benzamide] |  | IC50 [2]: 500 to 1000 nM |
| CC(NC(=O)Nc1c(F)cccc1F)c1ccc(C(=O)NO)cc1 (stereo not shown) [Compound I-261, 4-[1-({[(2,6-difluorophenyl)amino]carbonyl}amino)ethyl]-N-hydroxybenzamide] | < 100 |  |
| CC(C)C(NC(=O)c1cc2ccccc2o1)c1ccc(C(=O)NO)cc1 (stereo not shown) [Compound I-32, N-(1-{4-[(hydroxyamino)carbonyl]phenyl}-2-methylpropyl)-1-benzofuran-2-carboxamide] | < 100 |  |
| C[C@@H](NCC1(C)CCCCC1)c1ccc(C(=O)NO)cc1 [Compound I-489, N-hydroxy-4-((1R)-1-{[(1-methylcyclohexyl)methyl]amino}ethyl)benzamide] | 100 to 500 |  |

| SMILES | IC50 [1] [nM] | further results |
| --- | --- | --- |
| C[C@@H](NC(=O)c1cc2ccccc2o1)c1ccc(C(=O)NO)cc1 [Compound I-317, N-((1R)-1-{4-[(hydroxyamino)carbonyl]phenyl}ethyl)-1-benzofuran-2-carboxamide] | < 100 |  |
| CC(NC(=O)Nc1ccc2c(c1)OCO2)c1ccc(C(=O)NO)cc1 (stereo not shown) [Compound I-71, 4-(1-{[(1,3-benzodioxol-5-ylamino)carbonyl]amino}ethyl)-N-hydroxybenzamide] | < 100 |  |
| Cc1ccc(S(=O)(=O)NC(C)c2ccc(C(=O)NO)cc2)c(C)c1 (stereo not shown) [Compound I-78, 4-(1-{[(2,4-dimethylphenyl)sulfonyl]amino}ethyl)-N-hydroxybenzamide] | 100 to 500 |  |
| CC(NC(=O)NC(C)(C)C)c1ccc(C(=O)NO)cc1 (stereo not shown) [Compound I-339, 4-(1-{[(tert-butylamino)carbonyl]amino}ethyl)-N-hydroxybenzamide] |  | IC50 [2]: 500 to 1000 nM |
| C[C@@H](NC(=O)Nc1ccc2c(c1)CCO2)c1ccc(C(=O)NO)cc1 [Compound I-528, 4-((1R)-1-{[(2,3-dihydro-1-benzofuran-5-ylamino)carbonyl]amino}ethyl)-N-hydroxybenzamide] | < 100 |  |
| C[C@H](NC(=O)c1ccc(-c2ccccc2)cc1)c1cccc(C(=O)NO)c1 [Compound I-393, N-((1S)-1-{3-[(hydroxyamino)carbonyl]phenyl}ethyl)biphenyl-4-carboxamide] |  | IC50 [2]: 500 to 1000 nM |
| CC(C)C(NC(=O)C1CCCC1)c1ccc(C(=O)NO)cc1 (stereo not shown) [Compound I-255, 4-{1-[(cyclopentylcarbonyl)amino]-2-methylpropyl}-N-hydroxybenzamide] | 100 to 500 |  |
| CC(NS(=O)(=O)c1ccc2nsnc2c1)c1ccc(C(=O)NO)cc1 (stereo not shown) [Compound I-272, 4-{1-[(2,1,3-benzothiadiazol-5-ylsulfonyl)amino]ethyl}-N-hydroxybenzamide] |  | IC50 [2]: 500 to 1000 nM |
| CC(NC(=O)C12CC3CC(CC(C3)C1)C2)c1cccc(C(=O)NO)c1 (stereo not shown) [Compound I-83, N-(1-{3-[(hydroxyamino)carbonyl]phenyl}ethyl)adamantane-1-carboxamide] |  | IC50 (bin: greater than 1 μM): > 1000 nM |
| CC(C)[C@@H](NC(=O)NC(C)(C)C)c1ccc(C(=O)NO)cc1 [Compound I-368, 4-((1R)-1-{[(tert-butylamino)carbonyl]amino}-2-methylpropyl)-N-hydroxybenzamide] | 100 to 500 |  |
| O=C(N[C@H](c1ccc(C(=O)NO)cc1)C(F)(F)F)NC12CC3CC(CC(C3)C1)C2 [Compound I-105, 4-((1R)-1-{[(1-adamantylamino)carbonyl]amino}-2,2,2-trifluoroethyl)-N-hydroxybenzamide] | 100 to 500 |  |
| CC(C)c1ccc(CC(=O)NC(C)c2ccc(C(=O)NO)cc2)cc1 (stereo not shown) [Compound I-285, N-hydroxy-4-(1-{[(4-isopropylphenyl)acetyl]amino}ethyl)benzamide] |  | IC50 (bin: greater than 1 μM): > 1000 nM |
| COc1ccc(CC(=O)NC(C)c2ccc(C(=O)NO)cc2)cc1 (stereo not shown) [Compound I-159, N-hydroxy-4-(1-{[(4-methoxyphenyl)acetyl]amino}ethyl)benzamide] |  | IC50 (bin: greater than 1 μM): > 1000 nM |
| CC(C)C(NC(=O)c1cccc2ccccc12)c1ccc(C(=O)NO)cc1 (stereo not shown) [Compound I-331, N-(1-{4-[(hydroxyamino)carbonyl]phenyl}-2-methylpropyl)-1-naphthamide] | 100 to 500 |  |
| CC(NC(=O)c1ccc2ncsc2c1)c1ccc(C(=O)NO)cc1 (stereo not shown) [Compound I-360, N-(1-{4-[(hydroxyamino)carbonyl]phenyl}ethyl)-1,3-benzothiazole-6-carboxamide] | < 100 |  |
| CC(NC(=O)c1cc2ccccc2n1C)c1cccc(C(=O)NO)c1 (stereo not shown) [Compound I-219, N-(1-{3-[(hydroxyamino)carbonyl]phenyl}ethyl)-1-methyl-1H-indole-2-carboxamide] | 100 to 500 |  |
| CCC[C@@H](NC(=O)c1cc2oc(-c3ccccc3)cc2n1C)c1ccc(C(=O)NO)cc1 [Compound I-222, N-((1R)-1-{4-[(hydroxyamino)carbonyl]phenyl}butyl)-4-methyl-2-phenyl-4H-furo[3,2-b]pyrrole-5-carboxamide] | < 100 |  |
